Measurements as given in ChEMBL document CHEMBL3885881, “DrugMatrix”.

Species on record: Rattus norvegicus
Assay: DrugMatrix - Regimen: Daily Repeat
Assay type: toxicity, organism-based, Sprague-Dawley
Parameters: regimen Daily Repeat, gender Male, age 6-8 weeks
Settings: in vivo, po, route oral GAVAGE, vehicle .5 % CMC; for ABSOLUTE BASOPHIL / ABSOLUTE EOSINOPHIL / ABSOLUTE LYMPHOCYTE / ABSOLUTE MONOCYTE / ABSOLUTE SEGMENTED NEUTROPHIL / BASOPHIL / EOSINOPHIL / ERYTHROCYTE COUNT / HEMATOCRIT / HEMOGLOBIN / LEUKOCYTE COUNT / LYMPHOCYTE / MEAN CORPUSCULAR HEMOGLOBIN / MEAN CORPUSCULAR HEMOGLOBIN CONCENTRATION / MEAN CORPUSCULAR VOLUME / MONOCYTE / NEUTROPHIL / NUCLEATED RED BLOOD CELLS / PLATELET COUNT: tissue Blood; for ALANINE AMINOTRANSFERASE / ALBUMIN / ALKALINE PHOSPHATASE / ASPARTATE AMINOTRANSFERASE / BLOOD UREA NITROGEN / CARBON DIOXIDE / CHLORIDE / CHOLESTEROL / CREATINE PHOSPHOKINASE / CREATININE / GLUCOSE / LACTATE DEHYDROGENASE / LIPASE / PHOSPHORUS / POTASSIUM / SODIUM / TOTAL BILIRUBIN / TOTAL PROTEIN / URIC ACID: tissue Plasma
[1] = 19 mg/kg, 120 h, dose level High, time 5 day
[2] = […], 72 h, dose 6.6 mg/Kg, dose level Low, time 3 day
[3] = […], 120 h, dose 6.6 mg/Kg, dose level Low, time 5 day

NCC(CC(=O)O)c1ccc(Cl)cc1 (centres undefined) [BACLOFEN]
ABSOLUTE BASOPHIL [1]: 0 CELLS/uL
ABSOLUTE EOSINOPHIL [1]: 0 CELLS/uL
ABSOLUTE LYMPHOCYTE [1]: 14854 CELLS/uL
ABSOLUTE MONOCYTE [1]: 102.67 CELLS/uL
ABSOLUTE SEGMENTED NEUTROPHIL [1]: 1043.33 CELLS/uL
BASOPHIL [1]: 0%
EOSINOPHIL [1]: 0%
ERYTHROCYTE COUNT [1]: 5.41 x10E6/uL
HEMATOCRIT [1]: 33.6%
HEMOGLOBIN [1]: 13.33 G/DL
LEUKOCYTE COUNT [1]: 16 x10E3/uL
LYMPHOCYTE [1]: 93%
MEAN CORPUSCULAR HEMOGLOBIN [1]: 24.7 pg
MEAN CORPUSCULAR HEMOGLOBIN CONCENTRATION [1]: 39.73 G/DL
MEAN CORPUSCULAR VOLUME [1]: 62.17 fL
MONOCYTE [1]: 0.67%
NEUTROPHIL [1]: 6.33%
NUCLEATED RED BLOOD CELLS [1]: 0 /100WBC
PLATELET COUNT [1]: 1022.33 x10E3/uL
ALANINE AMINOTRANSFERASE [1]: 54.67 u/L
ALBUMIN [1]: 4.1 G/DL
ALKALINE PHOSPHATASE [1]: 431.33 u/L
ASPARTATE AMINOTRANSFERASE [1]: 87.67 u/L
BLOOD UREA NITROGEN [1]: 19.67 mg/dL
CARBON DIOXIDE [1]: 26.33 mmol/L
CHLORIDE [1]: 103.67 MEQ/L
CHOLESTEROL [1]: 59.33 mg/dL
CREATINE PHOSPHOKINASE [1]: 272.67 u/L
CREATININE [1]: 0.23 mg/dL
GLUCOSE [1]: 160 mg/dL
LACTATE DEHYDROGENASE [1]: 391 u/L
LIPASE [1]: 9 u/L
PHOSPHORUS [1]: 11.13 mg/dL
POTASSIUM [1]: 6.54 MEQ/L
SODIUM [1]: 147.27 MEQ/L
TOTAL BILIRUBIN [1]: 0.3 mg/dL
TOTAL PROTEIN [1]: 5.87 G/DL
URIC ACID [1]: 1.4 mg/dL
ABSOLUTE BASOPHIL [2]: 0 CELLS/uL
ABSOLUTE EOSINOPHIL [2]: 196 CELLS/uL
ABSOLUTE LYMPHOCYTE [2]: 14434 CELLS/uL
ABSOLUTE MONOCYTE [2]: 264.67 CELLS/uL
ABSOLUTE SEGMENTED NEUTROPHIL [2]: 1038.67 CELLS/uL
BASOPHIL [2]: 0%
EOSINOPHIL [2]: 1%
ERYTHROCYTE COUNT [2]: 5.8 x10E6/uL
HEMATOCRIT [2]: 36.17%
HEMOGLOBIN [2]: 13.87 G/DL
LEUKOCYTE COUNT [2]: 15.93 x10E3/uL
LYMPHOCYTE [2]: 90.67%
MEAN CORPUSCULAR HEMOGLOBIN [2]: 24.03 pg
MEAN CORPUSCULAR HEMOGLOBIN CONCENTRATION [2]: 38.37 G/DL
MEAN CORPUSCULAR VOLUME [2]: 62.57 fL
MONOCYTE [2]: 1.67%
NEUTROPHIL [2]: 6.67%
NUCLEATED RED BLOOD CELLS [2]: 0 /100WBC
PLATELET COUNT [2]: 1144 x10E3/uL
ALANINE AMINOTRANSFERASE [2]: 51.67 u/L
ALBUMIN [2]: 4.27 G/DL
ALKALINE PHOSPHATASE [2]: 456 u/L
ASPARTATE AMINOTRANSFERASE [2]: 81.33 u/L
BLOOD UREA NITROGEN [2]: 18.33 mg/dL
CARBON DIOXIDE [2]: 27 mmol/L
CHLORIDE [2]: 100 MEQ/L
CHOLESTEROL [2]: 67 mg/dL
CREATINE PHOSPHOKINASE [2]: 351.67 u/L
CREATININE [2]: 0.23 mg/dL
GLUCOSE [2]: 153.33 mg/dL
LACTATE DEHYDROGENASE [2]: 367.67 u/L
LIPASE [2]: 10.67 u/L
PHOSPHORUS [2]: 12.53 mg/dL
POTASSIUM [2]: 7.1 MEQ/L
SODIUM [2]: 142.1 MEQ/L
TOTAL BILIRUBIN [2]: 0.2 mg/dL
TOTAL PROTEIN [2]: 5.93 G/DL
URIC ACID [2]: 1.63 mg/dL
ABSOLUTE BASOPHIL [3]: 0 CELLS/uL
ABSOLUTE EOSINOPHIL [3]: 160.33 CELLS/uL
ABSOLUTE LYMPHOCYTE [3]: 14603.33 CELLS/uL
ABSOLUTE MONOCYTE [3]: 300.67 CELLS/uL
ABSOLUTE SEGMENTED NEUTROPHIL [3]: 1335.67 CELLS/uL
BASOPHIL [3]: 0%
EOSINOPHIL [3]: 1%
ERYTHROCYTE COUNT [3]: 5.47 x10E6/uL
HEMATOCRIT [3]: 35.43%
HEMOGLOBIN [3]: 13.57 G/DL
LEUKOCYTE COUNT [3]: 16.4 x10E3/uL
LYMPHOCYTE [3]: 89%
MEAN CORPUSCULAR HEMOGLOBIN [3]: 24.8 pg
MEAN CORPUSCULAR HEMOGLOBIN CONCENTRATION [3]: 38.3 G/DL
MEAN CORPUSCULAR VOLUME [3]: 64.8 fL
MONOCYTE [3]: 1.67%
NEUTROPHIL [3]: 8.33%
NUCLEATED RED BLOOD CELLS [3]: 0 /100WBC
PLATELET COUNT [3]: 1121.33 x10E3/uL
ALANINE AMINOTRANSFERASE [3]: 51 u/L
ALBUMIN [3]: 4.23 G/DL
ALKALINE PHOSPHATASE [3]: 364.33 u/L
ASPARTATE AMINOTRANSFERASE [3]: 94.33 u/L
BLOOD UREA NITROGEN [3]: 19 mg/dL
CARBON DIOXIDE [3]: 28.33 mmol/L
CHLORIDE [3]: 100.67 MEQ/L
CHOLESTEROL [3]: 71 mg/dL
CREATINE PHOSPHOKINASE [3]: 448 u/L
CREATININE [3]: 0.15 mg/dL
GLUCOSE [3]: 140.33 mg/dL
LACTATE DEHYDROGENASE [3]: 505 u/L
LIPASE [3]: 10 u/L
PHOSPHORUS [3]: 11.6 mg/dL
POTASSIUM [3]: 6.27 MEQ/L
SODIUM [3]: 143.57 MEQ/L
TOTAL BILIRUBIN [3]: 0.23 mg/dL
TOTAL PROTEIN [3]: 6.07 G/DL
URIC ACID [3]: 1.37 mg/dL
